Read-outs that look alike come from different tables or passages of the source.
Columns and labels:
Assay type in all cases: cell-based
[1] = system: BEL-7402 liver cancer cell line; assay: CCK-8 proliferation inhibition
In short: (§1)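 Plating at 2000 cells/well, then incubation overnight at 37° C. Next, a range of compound concentrations for 72 hours (control 1‰ DMSO). Finally, medium decanted and CCK-8 diluted 1:10 added.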

[2] = system: MGC-803 gastric cancer cell line; assay: CCK-8 proliferation inhibition; conditions: Homo sapiens
In short: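 Using media specific to each line (1640 for MGC-803 and Jurkat, F12 for PC3, DMEM high glucose for MCF-7, each with 10% newborn bovine serum), cells at 2000/well were treated for 72 h with serially formulated compounds, then assessed with CCK-8 diluted 1:10.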

[3] = system: A549 lung cancer cell line; assay: CCK-8 proliferation inhibition; conditions: Homo sapiens
In short: as §1

[4] = system: HCT-116 colorectal cancer cell line; assay: CCK-8 proliferation inhibition; conditions: Homo sapiens, 72 hours, CCK-8; for inhibition at 30 µM: HCT-116, 72 h, concentration of 30 μM
In short: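 Proliferation over 72 hours of compound treatment was measured with CCK-8 against a 1‰ DMSO control.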

[5] = system: methicillin-resistant Staphylococcus aureus (MRSA); assay: MIC, two-fold agar dilution (CLSI), clinical isolates
In short: (§2)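 Test samples were assayed by the CLSI-recommended two-fold agar dilution method, and the minimum inhibitory concentration against each tested strain was determined.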

[6] = system: methicillin-sensitive Staphylococcus epidermidis (MSSE); assay: as above
In short: as §2

[7] = system: methicillin-sensitive Staphylococcus aureus (MSSA); assay: as above
In short: as §2

[8] = system: Enterococcus faecalis (EFA); assay: as above
In short: as §2

[9] = system: Streptococcus pneoumoniae (SPN); assay: as above
In short: as §2

[10] = system: methicillin-resistant Staphylococcus epidermidis (MRSE); assay: as above
In short: as §2

[11] = system: Moraxella catarrhalis (BCA); assay: as above
In short: as §2

[12] = system: Enterococcus faecium (EFM); assay: as above
In short: as §2

[13] = system: Escherichia coli (including ESBLs, non-ESBLs); assay: as above
In short: as §2

Q: Which inhibition at 30 µM ([1]; Homo sapiens, Bel-7402, 72 h, concentration of 30 μM) does the source give for CCCC[C@H](CC(=O)NO)C(=O)N1CC2(CC2)C[C@H]1C(=O)Nc1cc(C(C)(C)C)on1 [Example 55] here?
A: Its inhibition at 30 µM is over 50%.

Q: What about the IC50 ([1]; Homo sapiens, Bel-7402, 72 hours) of the same molecule?
A: The IC50 was 25.9 µM.

Q: And the “Inhibition of proliferation, Liver cancer BEL-7402” value ([1]; concentration of 30 μM, 72 hours, 30 µM)?
A: The value was 59%.

Q: What about the inhibition at 30 µM ([2]; MGC-803, 72 h, concentration of 30 μM) of the same molecule?
A: Its inhibition at 30 µM is 33%.

Q: And the IC50 ([2]; MGC-803, 72 hours)?
A: The IC50 was 29.5 µM.

Q: And the inhibition at 30 µM ([3]; A549, 72 h, concentration of 30 μM)?
A: The inhibition at 30 µM was 49%.

Q: And the IC50 ([3]; A549, 72 hours)?
A: The IC50 was 12.1 µM.

Q: What about the inhibition at 30 µM ([4]; Table 5, read-out: Inhibition of proliferation, Colorectal cancer HCT116) of the same molecule?
A: The inhibition at 30 µM was at least 30%.

Q: And the inhibition at 30 µM ([4]; read-out: HCT116 inhibition rate/%)?
A: Its inhibition at 30 µM is 30%.

Q: And the IC50 ([4]; HCT-116)?
A: The IC50 was 15.2 µM.

Q: And the Anti-bacterial activity (MIC), strain MRSA 15-1 ([5]; clinical isolate MRSA 15-1)?
A: The Anti-bacterial activity (MIC), strain MRSA 15-1 was 0.25 µg/mL.

Q: What about the Anti-bacterial activity (MIC), strain MRSA 15-2 ([5]; clinical isolate MRSA 15-2) of the same molecule?
A: Its Anti-bacterial activity (MIC), strain MRSA 15-2 is 0.5 µg/mL.

Q: What about the Anti-bacterial activity (MIC), strain MRSA 15-3 ([5]; clinical isolate MRSA 15-3) of the same molecule?
A: The Anti-bacterial activity (MIC), strain MRSA 15-3 was 0.5 µg/mL.

Q: What about the Anti-bacterial activity (MIC), strain MRSA 15-4 ([5]; clinical isolate MRSA 15-4) of the same molecule?
A: Its Anti-bacterial activity (MIC), strain MRSA 15-4 is 0.5 µg/mL.

Q: And the Anti-bacterial activity (MIC), strain MSSE 15-3 ([6]; clinical isolate MSSE 15-3)?
A: The Anti-bacterial activity (MIC), strain MSSE 15-3 was 1 µg/mL.

Q: And the Anti-bacterial activity (MIC), strain MSSE 15-4 ([6]; clinical isolate MSSE 15-4)?
A: The Anti-bacterial activity (MIC), strain MSSE 15-4 was 1 µg/mL.

Q: What about the Anti-bacterial activity (MIC), strain MSSE 15-5 ([6]; clinical isolate MSSE 15-5) of the same molecule?
A: The Anti-bacterial activity (MIC), strain MSSE 15-5 was 1 µg/mL.

Q: And the Anti-bacterial activity (MIC), strain MSSE 15-6 ([6]; clinical isolate MSSE 15-6)?
A: Its Anti-bacterial activity (MIC), strain MSSE 15-6 is 1 µg/mL.

Q: What about the Anti-bacterial activity (MIC), strain MSSA 15-3 ([7]; clinical isolate MSSA 15-3) of the same molecule?
A: The Anti-bacterial activity (MIC), strain MSSA 15-3 was 0.5 µg/mL.

Q: What about the Anti-bacterial activity (MIC), strain MSSA 15-4 ([7]; clinical isolate MSSA 15-4) of the same molecule?
A: Its Anti-bacterial activity (MIC), strain MSSA 15-4 is 1 µg/mL.

Q: What about the Anti-bacterial activity (MIC), strain MSSA 15-5 ([7]; clinical isolate MSSA 15-5) of the same molecule?
A: Its Anti-bacterial activity (MIC), strain MSSA 15-5 is 1 µg/mL.

Q: What about the Anti-bacterial activity (MIC), strain MSSA 15-6 ([7]; clinical isolate MSSA 15-6) of the same molecule?
A: The Anti-bacterial activity (MIC), strain MSSA 15-6 was over 32 µg/mL.

Q: And the Anti-bacterial activity (MIC), strain EFA 15-1 ([8]; clinical isolate EFA 15-1)?
A: The Anti-bacterial activity (MIC), strain EFA 15-1 was over 32 µg/mL.

Q: What about the Anti-bacterial activity (MIC), strain EFA 15-2 ([8]; clinical isolate EFA 15-2) of the same molecule?
A: Its Anti-bacterial activity (MIC), strain EFA 15-2 is over 32 µg/mL.

Q: What about the Anti-bacterial activity (MIC), strain EFA 15-3 ([8]; clinical isolate EFA 15-3) of the same molecule?
A: Its Anti-bacterial activity (MIC), strain EFA 15-3 is over 32 µg/mL.

Q: And the Anti-bacterial activity (MIC), strain EFA 15-4 ([8]; clinical isolate EFA 15-4)?
A: The Anti-bacterial activity (MIC), strain EFA 15-4 was over 32 µg/mL.

Q: What about the Anti-bacterial activity (MIC), strain EFA 15-5 ([8]; clinical isolate EFA 15-5) of the same molecule?
A: The Anti-bacterial activity (MIC), strain EFA 15-5 was over 32 µg/mL.

Q: What about the Anti-bacterial activity (MIC), strain EFA 15-6 ([8]; clinical isolate EFA 15-6) of the same molecule?
A: The Anti-bacterial activity (MIC), strain EFA 15-6 was over 32 µg/mL.

Q: What about the Anti-bacterial activity (MIC), strain EFA 15-9 ([8]; clinical isolate EFA 15-9) of the same molecule?
A: The Anti-bacterial activity (MIC), strain EFA 15-9 was 8 µg/mL.

Q: What about the Anti-bacterial activity (MIC), strain SPN 16-2 ([9]; clinical isolate SPN 16-2) of the same molecule?
A: The Anti-bacterial activity (MIC), strain SPN 16-2 was 1 µg/mL.

Q: And the Anti-bacterial activity (MIC), strain SPN 16-4 ([9]; clinical isolate SPN 16-4)?
A: The Anti-bacterial activity (MIC), strain SPN 16-4 was 1 µg/mL.

Q: And the Anti-bacterial activity (MIC), strain MRSE 15-1 ([10]; clinical isolate MRSE 15-1)?
A: Its Anti-bacterial activity (MIC), strain MRSE 15-1 is 1 µg/mL.

Q: What about the Anti-bacterial activity (MIC), strain MRSE 15-2 ([10]; clinical isolate MRSE 15-2) of the same molecule?
A: The Anti-bacterial activity (MIC), strain MRSE 15-2 was 1 µg/mL.

Q: What about the Anti-bacterial activity (MIC), strain MRSE 15-3 ([10]; clinical isolate MRSE 15-3) of the same molecule?
A: The Anti-bacterial activity (MIC), strain MRSE 15-3 was 1 µg/mL.

Q: What about the Anti-bacterial activity (MIC), strain MRSE 15-7 ([10]; clinical isolate MRSE 15-7) of the same molecule?
A: The Anti-bacterial activity (MIC), strain MRSE 15-7 was 1 µg/mL.

Q: What about the Anti-bacterial activity (MIC), strain BCA 14-1 ([11]; clinical isolate BCA 14-1) of the same molecule?
A: Its Anti-bacterial activity (MIC), strain BCA 14-1 is 4 µg/mL.

Q: What about the Anti-bacterial activity (MIC), strain BCA 14-4 ([11]; clinical isolate BCA 14-4) of the same molecule?
A: The Anti-bacterial activity (MIC), strain BCA 14-4 was 4 µg/mL.

Q: What about the Anti-bacterial activity (MIC), strain BCA 14-5 ([11]; clinical isolate BCA 14-5) of the same molecule?
A: Its Anti-bacterial activity (MIC), strain BCA 14-5 is 1 µg/mL.

Q: What about the Anti-bacterial activity (MIC), strain BCA 14-6 ([11]; clinical isolate BCA 14-6) of the same molecule?
A: The Anti-bacterial activity (MIC), strain BCA 14-6 was 2 µg/mL.

Q: What about the Anti-bacterial activity (MIC), strain BCA 14-7 ([11]; clinical isolate BCA 14-7) of the same molecule?
A: Its Anti-bacterial activity (MIC), strain BCA 14-7 is 4 µg/mL.

Q: What about the Anti-bacterial activity (MIC), strain BCA 14-8 ([11]; clinical isolate BCA 14-8) of the same molecule?
A: The Anti-bacterial activity (MIC), strain BCA 14-8 was 4 µg/mL.

Q: What about the Anti-bacterial activity (MIC), strain BCA 14-10 ([11]; clinical isolate BCA 14-10) of the same molecule?
A: The Anti-bacterial activity (MIC), strain BCA 14-10 was 4 µg/mL.

Q: And the Anti-bacterial activity (MIC), strain EFM 15-1 ([12]; clinical isolate EFM 15-1)?
A: Its Anti-bacterial activity (MIC), strain EFM 15-1 is over 32 µg/mL.

Q: What about the Anti-bacterial activity (MIC), strain EFM 15-2 ([12]; clinical isolate EFM 15-2) of the same molecule?
A: Its Anti-bacterial activity (MIC), strain EFM 15-2 is over 32 µg/mL.

Q: And the Anti-bacterial activity (MIC), strain EFM 15-3 ([12]; clinical isolate EFM 15-3)?
A: The Anti-bacterial activity (MIC), strain EFM 15-3 was over 32 µg/mL.

Q: What about the Anti-bacterial activity (MIC), strain EFM 15-4 ([12]; clinical isolate EFM 15-4) of the same molecule?
A: Its Anti-bacterial activity (MIC), strain EFM 15-4 is over 32 µg/mL.

Q: And the Anti-bacterial activity (MIC), strain EFM 15-5 ([12]; clinical isolate EFM 15-5)?
A: Its Anti-bacterial activity (MIC), strain EFM 15-5 is 0.5 µg/mL.

Q: What about the Anti-bacterial activity (MIC), strain EFM 15-6 ([12]; clinical isolate EFM 15-6) of the same molecule?
A: Its Anti-bacterial activity (MIC), strain EFM 15-6 is 2 µg/mL.

Q: And the Anti-bacterial activity (MIC), strain ECO+ 15-1 ([13]; clinical isolate ECO+ 15-1)?
A: Its Anti-bacterial activity (MIC), strain ECO+ 15-1 is 32 µg/mL.

Q: What about the Anti-bacterial activity (MIC), strain ECO+ 15-2 ([13]; clinical isolate ECO+ 15-2) of the same molecule?
A: Its Anti-bacterial activity (MIC), strain ECO+ 15-2 is over 32 µg/mL.

Q: And the Anti-bacterial activity (MIC), strain ECO+ 15-3 ([13]; clinical isolate ECO+ 15-3)?
A: Its Anti-bacterial activity (MIC), strain ECO+ 15-3 is over 32 µg/mL.

Q: And the Anti-bacterial activity (MIC), strain ECO+ 15-4 ([13]; clinical isolate ECO+ 15-4)?
A: Its Anti-bacterial activity (MIC), strain ECO+ 15-4 is 1 µg/mL.

Q: And the Anti-bacterial activity (MIC), strain ECO− 15-1 ([13]; clinical isolate ECO− 15-1)?
A: Its Anti-bacterial activity (MIC), strain ECO− 15-1 is over 32 µg/mL.

Q: And the Anti-bacterial activity (MIC), strain ECO− 15-2 ([13]; clinical isolate ECO− 15-2)?
A: The Anti-bacterial activity (MIC), strain ECO− 15-2 was over 32 µg/mL.

Q: And the Anti-bacterial activity (MIC), strain ECO− 15-3 ([13]; clinical isolate ECO− 15-3)?
A: Its Anti-bacterial activity (MIC), strain ECO− 15-3 is over 32 µg/mL.

Q: And the Anti-bacterial activity (MIC), strain ECO− 15-4 ([13]; clinical isolate ECO− 15-4)?
A: Its Anti-bacterial activity (MIC), strain ECO− 15-4 is over 32 µg/mL.

— patent publication US10738028B2, “Spiro three-membered ring, spiro five-membered ring peptide deformylase inhibitor and use thereof in antibacteria and anti-tumor” (priority 2016, dated 2020)
